Test results: patent USRE30413E, “Bleomycinic acid and process for preparing thereof” (Zaidan Hojin Biseibutsu Kagaku Kenkyu Kai, priority 1971, dated 1980)
Read-outs that look alike come from different tables or passages of the source.

Assays:
Mycobacterium 607 = assay: cup test, antimicrobial activity to Mycobacterium 607; assay type: cell-based; details: standard bleomycin A2 = 1000 μ/mg
Source text: The endpoint of the hydrolysis reaction can be determined by a reaction in antimicrobial activity of the bleomycin substrate as measured by conventional cup tests using Mycobacterium 607, or by a change in the Rf value during thin layer chromatography.

ICR-JCL male mice = details: for Total, degree of fibrosis ++: number of mice with grade ++, fourth Total column; for Total, degree of fibrosis -: number of mice with grade -, first Total column; for Total, degree of fibrosis ±: number of mice with grade ±, second Total column
Source text: The mice were bred for 5 weeks after the final administration and were then dissected. The right and left lungs were observed by microscopic examination.

HeLa (S3 bb cell line) = details: third day after addition
Source text: wherein the inhibitory effect= [formula] Co: relative number of cell on the first day t3 : relative number of cell on the third day after the addition of a bleomycin (3 mcg/ml in final)
C3 : relative number of cell in negative control on the third day

[1] = solubility of the hydrochloride in solvents; assay type: physicochemical

Cc1c(N)nc([C@H](CC(N)=O)NC[C@H](N)C(N)=O)nc1C(=O)N[C@H](C(=O)N[C@H](C)[C@@H](O)[C@H](C)C(=O)N[C@H](C(=O)NCCc1nc(-c2nc(C(=O)NCCC[S+](C)C)cs2)cs1)[C@@H](C)O)[C@@H](O[C@@H]1O[C@@H](CO)[C@@H](O)[C@H](O)[C@@H]1O[C@H]1O[C@H](CO)[C@@H](O)[C@H](OC(N)=O)[C@@H]1O)c1c[nH]cn1.[Br-] [bleomycin A2, 3-dimethylsulfopropylamino-bleomycin]
antimicrobial activity to Mycobacterium 607 (Mycobacterium 607): 1000 μ/mg

Cc1c(N)nc([C@H](CC(N)=O)NC[C@H](N)C(N)=O)nc1C(=O)N[C@H](C(=O)N[C@H](C)[C@@H](O)[C@H](C)C(=O)N[C@H](C(=O)NCCc1nc(-c2nc(C(=O)NCCCCN=C(N)N)cs2)cs1)[C@@H](C)O)[C@@H](O[C@@H]1O[C@@H](CO)[C@@H](O)[C@H](O)[C@@H]1O[C@H]1O[C@H](CO)[C@@H](O)[C@H](OC(N)=O)[C@@H]1O)c1cnc[nH]1 [bleomycin B2, 4-guanidinobutylamino-bleomycin]
Total, degree of fibrosis ++ (ICR-JCL male mice; lung L): 1
Total, degree of fibrosis - (ICR-JCL male mice; lung L): 5
Total, degree of fibrosis ± (ICR-JCL male mice; lung L): 1
Total, degree of fibrosis ++ (ICR-JCL male mice; lung R): 0
Total, degree of fibrosis - (ICR-JCL male mice; lung R): 4
Total, degree of fibrosis ± (ICR-JCL male mice; lung R): 3
Inhibitory effect (cell culture of Yoshida; 0.625 mcg/ml): 8.6
Inhibitory effect (cell culture of Yoshida; 1.25 mcg/ml): 34.0
Inhibitory effect (cell culture of Yoshida; 2.5 mcg/ml): 56.0
Inhibitory effect (HeLa (S3 bb cell line); 1.5 mcg/ml): 33
Inhibitory effect (HeLa (S3 bb cell line); 3 mcg/ml): 64

benzylamino-bleomycin
Inhibitory effect (HeLa (S3 bb cell line); 1.5 mcg/ml): 38
Inhibitory effect (HeLa (S3 bb cell line); 3 mcg/ml): 73
Inhibitory effect (HeLa (S3 bb cell line); 6 mcg/ml): 92

hydrochloride of bleomycinic acid
solubility ([1]; acetic acid): sparingly soluble
solubility ([1]; acetone): insoluble
solubility ([1]; dimethylsulfoxide): sparingly soluble
solubility ([1]; ethanol): insoluble
solubility ([1]; ether): insoluble
solubility ([1]; ethyl acetate): insoluble
solubility ([1]; methanol): sparingly soluble
solubility ([1]; water): soluble
